These results are taken from article PMC7567097, “A nanoluciferase SARS-CoV-2 for rapid neutralization testing and screening of anti-infective drugs for COVID-19” (Nature Communications, 2020).

Values joined by “and” are separate entries in the source; they are usually repeats but may differ in a detail not shown here. Equal entries are not always repeated. Where two headings read alike, the source gives them in different places.

Series [1] deals with SARS-CoV-2-Nluc. Description: microbe, parasite or virus in culture. The class given is cell-based.
The nature of a further series: in vitro. Conditions: human; for viability: cell viability (% of DMSO control).
The conditions of series [2]: human exposures in the clinic, approved dosing schedules, ref [51]-[68], cited from earlier work; for Cmax: read-out: Exposure Cmax.
The conditions of series [3]: data from literature; ref [51]-[68]; cited from earlier work.
A further series deals with COVID-19. Details: method as in PMID 32392282. Conditions: >1400 patients, compared with no treatment; cited from earlier work.
For series [4], the system named is SARS-CoV-2-Nluc. Description: microbe, parasite or virus in culture. Conditions: Severe acute respiratory syndrome coronavirus 2, Vero C1008, 48 h. The class given is cell-based.
The nature of series [5]: Cytotoxicity assay (CCK-8, 72 h) in Vero E6 cells. The series is classed as cell-based, African green monkey. To be noted: African green monkey, Vero E6 cells; for viability at 72 h: Vero, two replicates, read-out: cell viability (% of DMSO control).
Another series concerns Vero E6 cells. Description: Cytotoxicity assay (CCK-8, 72 h) in Vero E6 cells. The class given is cell-based, African green monkey. To be noted: Vero, two replicates.
Setting [6] is: Severe acute respiratory syndrome coronavirus 2, 48 h.
Setting [7] is: Severe acute respiratory syndrome coronavirus 2, read-out: EC50 (µM) Replicate 1.
Where [8] appears, read: Severe acute respiratory syndrome coronavirus 2, read-out: EC50 (µM) Replicate 2.

Regarding `O=C1Nc2ccc(Cl)cc2[C@@](C#CC2CC2)(C(F)(F)F)O1` [Efavirenz], in the series with SARS-CoV-2-Nluc [1], the “Selectivity index (SI) = CC50/EC50” value is less than 3.9. The EC50 with SARS-CoV-2-Nluc [1] (setting [6]) was more than 9.6 µM; in the series on SARS-CoV-2-Nluc [1] (setting [7]) it was 9.6 µM; in the series with SARS-CoV-2-Nluc [1] (setting [8]), more than 10 µM. Further, the figures for the CC50 in “in vitro” (CC50), in “in vitro” (CC50 (µM) Replicate 1) and in the series “in vitro” (CC50 (µM) Replicate 2) were 37.6 ± 10.7 µM, 45.1 µM and 30 µM, respectively. The “Exposure Cmin” value in [2] is recorded as 5.6 µM. Also, the Plasma protein binding in [3] is 99.5–99.8%.

Take `CCC[C@@]1(CCc2ccccc2)CC(O)=C([C@H](CC)c2cccc(NS(=O)(=O)c3ccc(C(F)(F)F)cn3)c2)C(=O)O1` [Tipranavir]: the “Selectivity index (SI) = CC50/EC50” value with SARS-CoV-2-Nluc [1] is listed as 3.3. The EC50 in the series with SARS-CoV-2-Nluc [1] (setting [6]) amounted to 8.65 ± 0.16 µM; in the series on SARS-CoV-2-Nluc [1] (setting [7]), 8.53 µM; in the series on SARS-CoV-2-Nluc [1] (setting [8]), 8.76 µM. Besides, the CC50 in the series “in vitro” (CC50) stood at 28.4 ± 0.5 µM; in “in vitro” (CC50 (µM) Replicate 1), 28.8 µM; in the series “in vitro” (CC50 (µM) Replicate 2), 28.1 µM. In addition, in [2], the “Exposure Cmin” value was 30.8 µM. The Cmax – broadly, the highest concentration seen after dosing – in [2] was 130 µM. In addition, the Plasma protein binding in series [3] is 99.9%.

For `CC[C@H]1OC(=O)[C@H](C)[C@@H](O[C@H]2C[C@@](C)(OC)[C@@H](O)[C@H](C)O2)[C@H](C)[C@@H](O[C@@H]2O[C@H](C)C[C@H](N(C)C)[C@H]2O)[C@](C)(O)C[C@@H](C)CN(C)[C@H](C)[C@@H](O)[C@]1(C)O` [azithromycin], the “association of treatment with fatality rate among hospitalized patients” value in the series with COVID-19 is listed as “not associated with significant differences in fatality rate”.

With `CC(C)CN(C[C@@H](O)[C@H](Cc1ccccc1)NC(=O)O[C@H]1CCOC1)S(=O)(=O)c1ccc(N)cc1` [Amprenavir], the EC50 in the series with SARS-CoV-2-Nluc [1] (setting [6]), in the series on SARS-CoV-2-Nluc [1] (setting [7]) and with SARS-CoV-2-Nluc [1] (setting [8]) was more than 10 µM in each case. Further, the CC50 in “in vitro” (CC50), in the series “in vitro” (CC50 (µM) Replicate 1) and in the series “in vitro” (CC50 (µM) Replicate 2) was more than 50 µM throughout. Moreover, the Plasma protein binding in [3] is listed as 90%.

Turning to `Cc1cc(/C=C/C#N)cc(C)c1Nc1ccnc(Nc2ccc(C#N)cc2)n1` [Rilpivirine], the EC50 stood at 7.8 ± 1.04 µM with SARS-CoV-2-Nluc [1] (setting [6]), 7.06 µM in the series with SARS-CoV-2-Nluc [1] (setting [7]) and 8.53 µM with SARS-CoV-2-Nluc [1] (setting [8]). Further, the results for the CC50 in the series “in vitro” (CC50), in the series “in vitro” (CC50 (µM) Replicate 1) and in the series “in vitro” (CC50 (µM) Replicate 2) were 14.6 ± 1.6 µM, 13.5 µM and 15.8 µM, respectively. In series [2], the “Exposure Cmin” value is 0.30 µM. For the same molecule, the peak concentration (Cmax) in [2] was 0.83 µM. The Plasma protein binding in series [3] is reported as 99.7%.

As for `Nc1nc(=O)n([C@@H]2CS[C@H](CO)O2)cc1F` [Emtricitabine (FTC), Emtricitabine], the EC50 in the series on SARS-CoV-2-Nluc [1] (setting [6]), with SARS-CoV-2-Nluc [1] (setting [7]) and in the series on SARS-CoV-2-Nluc [1] (setting [8]) was more than 10 µM in each case. The CC50 in “in vitro” (CC50), in the series “in vitro” (CC50 (µM) Replicate 1) and in “in vitro” (CC50 (µM) Replicate 2) was more than 50 µM each time. In [2], the peak concentration (Cmax) was 7.9 µM. Besides, the Plasma protein binding in series [3] is reported as 4%.

Turning to `O=C(NCc1c(F)cc(F)cc1F)c1cn2c(c(O)c1=O)C(=O)N1[C@H]3CC[C@H](C3)O[C@@H]1C2` [Bictegravir], the EC50 in the series with SARS-CoV-2-Nluc [1] (setting [6]) was more than 10 µM. The same molecule displayed a CC50 in the series “in vitro” (CC50) of more than 50 µM. For the same molecule, in series [3], the Plasma protein binding was more than 99%.

`CC(C)(C)NC(=O)[C@@H]1C[C@@H]2CCCC[C@@H]2CN1C[C@@H](O)[C@H](Cc1ccccc1)NC(=O)[C@H](CC(N)=O)NC(=O)c1ccc2ccccc2n1` [Saquinavir]: the “Selectivity index (SI) = CC50/EC50” value with SARS-CoV-2-Nluc [1] worked out at 3.9. For the same molecule, the EC50 in the series on SARS-CoV-2-Nluc [1] (setting [6]) came out at 8.95 ± 0.31 µM; in the series on SARS-CoV-2-Nluc [1] (setting [7]), 8.73 µM; in the series on SARS-CoV-2-Nluc [1] (setting [8]), 9.17 µM. Moreover, the CC50 in the series “in vitro” (CC50) was determined as 35.1 ± 11.7 µM; in “in vitro” (CC50 (µM) Replicate 1), 43.4 µM; in the series “in vitro” (CC50 (µM) Replicate 2), 26.8 µM. For the same molecule, in [2], the “Exposure Cmin” value is listed as 0.65 µM.

With `Cc1c(O)cccc1C(=O)N[C@@H](CSc1ccccc1)[C@H](O)CN1C[C@H]2CCCC[C@H]2C[C@H]1C(=O)NC(C)(C)C` [Nelfinavir], in the series on SARS-CoV-2-Nluc [1], the “Selectivity index (SI) = CC50/EC50” value is reported as 15.7. Also, the EC50 in the series on SARS-CoV-2-Nluc [1] (setting [6]) is 0.77 ± 0.32 µM; with SARS-CoV-2-Nluc [1] (setting [7]), 0.542 µM; with SARS-CoV-2-Nluc [1] (setting [8]), 0.993 µM; in the series on SARS-CoV-2-Nluc [1] (Severe acute respiratory syndrome coronavirus 2, read-out: projected protein adjusted potency (paEC50)), approximately 30 µM. For the same molecule, the CC50 was found to be 12 ± 1.3 µM in the series “in vitro” (CC50), 11.1 µM in the series “in vitro” (CC50 (µM) Replicate 1) and 13 µM in the series “in vitro” (CC50 (µM) Replicate 2). Also, the “Exposure Cmin” value in [2] is 2.6 µM. The Cmax in series [2] is 8.3 µM. For the same molecule, the Plasma protein binding in series [3] is reported as more than 98%.

Regarding `CCN(CC)CCCC(C)Nc1ccnc2cc(Cl)ccc12` (centres unmarked) [Chloroquine], the EC50 in the series on SARS-CoV-2-Nluc [1] (setting [6]) is 1.32 ± 0.36 µM; in the series on SARS-CoV-2-Nluc [1] (setting [7]), 1.06 µM; in the series on SARS-CoV-2-Nluc [1] (setting [8]), 1.57 µM; in the series on SARS-CoV-2-Nluc [4], 3.52 µM. Besides, the viability (as a rule, a read-out of living cells in per cent, often relative to untreated cells) at 72 h is 112% in series [5] (Concentration 0.00152416); 113% in series [5] (Concentration 0.00457247); 100% in series [5] (Concentration 0.0137174); 83.5% in series [5] (Concentration 0.123457); 80.1% in series [5] (Concentration 0.37037); 81.4% in series [5] (Concentration 1.11111). The viability at 72 h in series [5] (Concentration 3.33333) was found to be 75.3%; in [5] (Concentration 10), 76.5%. In series [5] (3-day cytotoxicity), the CC50 at 72 h was more than 50 µM. The “cell viability (% of DMSO control)” value with Vero E6 cells (Concentration 0.00152416) is 109.35%; with Vero E6 cells (Concentration 0.00457247) it was 115.44%; with Vero E6 cells (Concentration 0.0137174) it was 94.62%; with Vero E6 cells (Concentration 0.0411523) it was 86.94% and 111.97%; in the series with Vero E6 cells (Concentration 0.123457) it was 83.36%; with Vero E6 cells (Concentration 0.37037), 78.26%. In addition, the “cell viability (% of DMSO control)” value was determined as 94.9% in the series on Vero E6 cells (Concentration 1.11111); 72.03% with Vero E6 cells (Concentration 3.33333); 73.87% in the series with Vero E6 cells (Concentration 10); 94.76% with A549-hACE2 cells (Concentration 0.00152416); 100.03% in the series on A549-hACE2 cells (Concentration 0.00457247); 97.21% in the series on A549-hACE2 cells (Concentration 0.0137174). The “cell viability (% of DMSO control)” value in the series on A549-hACE2 cells (Concentration 0.0411523) is 100.16%; in the series with A549-hACE2 cells (Concentration 0.123457), 98.53%; in the series with A549-hACE2 cells (Concentration 0.37037), 99.78%; in the series on A549-hACE2 cells (Concentration 1.11111) it was 100.72%; in the series on A549-hACE2 cells (Concentration 3.33333) it was 101.54%; with A549-hACE2 cells (Concentration 10), 101.98%. Besides, the CC50 in the series “in vitro” (CC50), in the series “in vitro” (CC50 (µM) Replicate 1) and in the series “in vitro” (CC50 (µM) Replicate 2) was more than 50 µM in each case. For the same molecule, the viability stood at 105% in “in vitro” (Concentration 0.00152416); 106% in “in vitro” (Concentration 0.00457247); 103% in “in vitro” (Concentration 0.0137174); 104% in “in vitro” (Concentration 0.0411523); 105% in the series “in vitro” (Concentration 0.123457); 104% in the series “in vitro” (Concentration 0.37037). Besides, the viability in the series “in vitro” (Concentration 1.11111) is 104%; in “in vitro” (Concentration 3.33333) it was 104%; in “in vitro” (Concentration 10) it was 108%.

Turning to `CCN(CCO)CCCC(C)Nc1ccnc2cc(Cl)ccc12` (centres unmarked) [hydroxychloroquine], in the series with COVID-19, the “association of treatment with fatality rate among hospitalized patients” value is reported as “not associated with significant differences in fatality rate”.

As for `Cc1cccc(C)c1OCC(=O)N[C@@H](Cc1ccccc1)[C@@H](O)C[C@H](Cc1ccccc1)NC(=O)[C@H](C(C)C)N1CCCNC1=O` [Lopinavir], the EC50 in the series on SARS-CoV-2-Nluc [1] (setting [6]) was 9 ± 0.42 µM; in the series on SARS-CoV-2-Nluc [1] (setting [7]), 9.3 µM; with SARS-CoV-2-Nluc [1] (setting [8]) it was 8.7 µM. Moreover, the CC50 was found to be 31.5 ± 2.5 µM in “in vitro” (CC50), 29.8 µM in “in vitro” (CC50 (µM) Replicate 1) and 33.3 µM in “in vitro” (CC50 (µM) Replicate 2). For the same molecule, in series [3], the Plasma protein binding is on record as 98–99%.

In the case of `CC(C)OC(=O)[C@H](C)N[P@](=O)(CO[C@H](C)Cn1cnc2c(N)ncnc21)Oc1ccccc1` [Tenofovir alafenamide (TAF), Tenofovir alafenamide], the EC50 in the series with SARS-CoV-2-Nluc [1] (setting [6]), in the series on SARS-CoV-2-Nluc [1] (setting [7]) and in the series on SARS-CoV-2-Nluc [1] (setting [8]) was more than 10 µM throughout. Further, the CC50 in “in vitro” (CC50), in “in vitro” (CC50 (µM) Replicate 1) and in the series “in vitro” (CC50 (µM) Replicate 2) was more than 50 µM throughout. Besides, in series [2], the highest concentration (Cmax) was 0.4 µM. In addition, the Plasma protein binding in [3] was 80%.
